From patent US7795278B2 (sanofi-aventis Deutschland GmbH, priority 2004, dated 2010)

What follows are compounds tested against recombinantly expressed human PARP-1 enzyme (Homo sapiens, UniProt P09874) (assay: PARP enzyme assay (half-maximum inhibitor concentration)). Settings: DNA-activated PARP-1, 200 μM NAD, tritium-labeled NAD incorporation, room temperature, 1 hour, pH 8.0.
Type: biochemical
Method: Pharmacological Investigations PARP Enzyme Assay
The half-maximum inhibitor concentration is determined by incubating the substances to be tested with the DNA-activated, recombinantly expressed and purified PARP-1 enzyme. Specifically, various concentrations of the test substance are incubated in 50 μl of reaction solution, which contains 50 mM Tris, 5 mM MgCl2, 1 mM DTT, 200 μM NAD, 0.1 mCi/ml tritium-labeled NAD, 0.1 mg/ml DNA, 0.1 mg/ml histones, 2 μg/ml recombinantly expressed human PARP-1 enzyme, pH=8.0, at room temperature for 1 hour. The reaction is stopped by adding 150 μl of 20% trichloroacetic acid, and the radiolabeled protein constituents are precipitated. After incubation on ice for 10 minutes, the labeled, insoluble constituents are separated off through a glass fiber filter and, after washing with 20% trichloroacetic acid three times, the radioactivity incorporated by the PARP-1 enzyme is measured by radioluminescence.
IC-50 values were determined in this way for the following compounds: […]

Sequence of recombinantly expressed human PARP-1 enzyme (P09874 whole entry): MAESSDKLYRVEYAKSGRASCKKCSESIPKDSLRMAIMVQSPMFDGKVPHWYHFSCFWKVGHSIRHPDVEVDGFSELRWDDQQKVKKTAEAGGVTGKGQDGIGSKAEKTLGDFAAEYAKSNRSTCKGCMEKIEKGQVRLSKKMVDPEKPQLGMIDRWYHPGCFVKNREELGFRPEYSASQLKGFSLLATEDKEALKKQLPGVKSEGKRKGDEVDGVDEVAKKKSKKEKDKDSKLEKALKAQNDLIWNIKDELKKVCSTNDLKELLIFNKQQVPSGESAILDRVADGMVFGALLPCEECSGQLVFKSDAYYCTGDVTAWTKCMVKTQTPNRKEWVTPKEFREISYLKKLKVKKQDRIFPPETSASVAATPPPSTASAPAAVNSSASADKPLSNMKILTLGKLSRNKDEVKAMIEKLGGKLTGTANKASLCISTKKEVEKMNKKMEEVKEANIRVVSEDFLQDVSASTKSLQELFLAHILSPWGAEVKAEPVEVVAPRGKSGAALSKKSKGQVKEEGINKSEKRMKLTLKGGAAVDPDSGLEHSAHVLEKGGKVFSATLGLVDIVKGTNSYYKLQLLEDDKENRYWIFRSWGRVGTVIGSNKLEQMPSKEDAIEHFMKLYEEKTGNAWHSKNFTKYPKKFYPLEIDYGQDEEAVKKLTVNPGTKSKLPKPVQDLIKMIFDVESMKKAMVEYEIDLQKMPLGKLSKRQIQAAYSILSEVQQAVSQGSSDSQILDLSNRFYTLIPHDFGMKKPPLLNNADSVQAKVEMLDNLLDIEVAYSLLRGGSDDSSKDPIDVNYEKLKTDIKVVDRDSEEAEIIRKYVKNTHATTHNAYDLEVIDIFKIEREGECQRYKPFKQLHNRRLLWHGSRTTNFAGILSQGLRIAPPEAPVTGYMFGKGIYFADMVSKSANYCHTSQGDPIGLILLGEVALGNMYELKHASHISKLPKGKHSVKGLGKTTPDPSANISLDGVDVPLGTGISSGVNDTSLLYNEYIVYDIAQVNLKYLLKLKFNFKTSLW

Compound | IC50
4-(6-morpholin-4-ylpyridin-3-yl-amino)-5,6,7,8-tetrahydro-2H-isoquinolin-1-one [Example 4] | 6350 nM
4-[5-({[4-(4-fluorophenyl)-piperazin-1-yl]-5,6,7,8-tetrahydro-2H-isoquinolin-1-one [Example 71] | 1240 nM
O=c1[nH]cc(Nc2cccc(O)c2)c2c1CCCC2 [Example 1, 4-(3-hydroxyphenylamino)-5,6,7,8-tetrahydro-2H-isoquinolin-1-one] | 1310 nM
CNC(=O)c1cccc(Nc2c[nH]c(=O)c3c2CCCC3)c1 [Example 2, N-methyl-3-(1-oxo-1,2,5,6,7,8-hexahydroisoquinolin-4-ylamino)-benzamide] | 270 nM
O=c1[nH]cc(Nc2nc(-c3ccncc3)cs2)c2c1CCCC2 [Example 3, 4-(4-pyridin-4-ylthiazol-2-ylamino)-5,6,7,8-tetrahydro-2H-isoquinolin-1-one] | 9830 nM
CC(=O)Nc1cccc(Nc2c[nH]c(=O)c3c2CCCC3)c1 [Example 5, N-[3-(1-oxo-1,2,5,6,7,8-hexahydroisoquinolin-4-ylamino)-phenyl]acetamide] | 390 nM
CS(=O)(=O)c1cccc(Nc2c[nH]c(=O)c3c2CCCC3)c1 [Example 6, 4-(3-methanesulfonylphenyl-amino)-5,6,7,8-tetrahydro-2H-isoquinolin-1-one] | 800 nM
Cc1[nH]c(=O)c2c(c1Nc1cccc(S(C)(=O)=O)c1)CCCC2 [Example 7, 4-(3-methanesulfonylphenyl-amino)-3-methyl-5,6,7,8-tetrahydro-2H-isoquinolin-1-one] | 300 nM
O=c1[nH]cc(Nc2cccc(CO)c2)c2c1CCCC2 [Example 8, 4-(3-hydroxymethylphenyl-amino)-5,6,7,8-tetrahydro-2H-isoquinolin-1-one] | 610 nM
O=C1OCc2ccc(Nc3c[nH]c(=O)c4c3CCCC4)cc21 [Example 10] | 1430 nM
CCOc1cccc(Nc2c[nH]c(=O)c3c2CCCC3)c1 [Example 11, 4-(3-ethoxyphenylamino)-5,6,7,8-tetrahydro-2H-isoquinolin-1-one] | 390 nM
O=c1[nH]cc(Nc2ccc(Cl)nc2)c2c1CCCC2 [Example 12, 4-(6-chloropyridin-3-ylamino)-5,6,7,8-tetrahydro-2H-isoquinolin-1-one] | 670 nM
Cc1[nH]c(=O)c2c(c1Nc1cccc(C(=O)N(C)C)c1)CCCC2 [Example 13, N,N-dimethyl-3-(3-methyl-1-oxo-1,2,5,6,7,8-hexahydroisoquinolin-4-ylamino)benzamide] | 80 nM
Cc1[nH]c(=O)c2c(c1Nc1cccc(OC(F)(F)F)c1)CCCC2 [Example 14, 3-methyl-4-(3-trifluoromethoxy-phenylamino)-5,6,7,8-tetrahydro-2H-isoquinolin-1-one] | 1210 nM
CC(=O)c1cccc(Nc2c[nH]c(=O)c3c2CCCC3)c1 [Example 15, 4-(3-acetylphenylamino)-5,6,7,8-tetrahydro-2H-isoquinolin-1-one] | 690 nM
CC(=O)Nc1cccc(Nc2c(C)[nH]c(=O)c3c2CCCC3)c1 [Example 17, N-[3-(3-methyl-1-oxo-1,2,5,6,7,8-hexahydroisoquinolin-4-ylamino)-phenyl]acetamide] | 140 nM
Cc1[nH]c(=O)c2c(c1-c1cccs1)CCCC2 [Example 18, 3-methyl-4-thiophen-2-yl-5,6,7,8-tetrahydro-2H-isoquinolin-1-one] | 380 nM
Cc1[nH]c(=O)c2c(c1-c1cccnc1)CCCC2 [Example 19, 3-methyl-4-pyridin-3-yl-5,6,7,8-tetrahydro-2H-isoquinolin-1-one] | 740 nM
CCCCNC(=O)c1cccc(Nc2c[nH]c(=O)c3c2CCCC3)c1 [Example 20, N-Butyl-3-(1-oxo-1,2,5,6,7,8-hexahydroisoquinolin-4-ylamino)benzamide] | 1280 nM
O=C(c1cccc(Nc2c[nH]c(=O)c3c2CCCC3)c1)N1CCCC1 [Example 21, 4-[3-(Pyrrolidin-1-carbonyl)phenylamino]-5,6,7,8-tetrahydro-2H-isoquinolin-1-one] | 10600 nM
O=C(c1cccc(Nc2c[nH]c(=O)c3c2CCCC3)c1)N1CCN(CC2CC2)CC1 [Example 22, 4-[3-(4-Cyclopropylmethylpiperazine-1-carbonyl)phenylamino]-5,6,7,8-tetrahydro-2H-isoquinolin-1-one] | 330 nM

Compound | IC50
O=C(NCCc1cccnc1)c1cccc(Nc2c[nH]c(=O)c3c2CCCC3)c1 [Example 23, 3-(1-Oxo-1,2,5,6,7,8-hexahydroisoquinolin-4-ylamino)-N-(2-pyridin-3-ylethyl)benzamide] | 2010 nM
O=C(c1cncc(-c2c[nH]c(=O)c3c2CCCC3)c1)N1CCCC1 [Example 25, 4-[5-(pyrrolidine-1-carbonyl)-pyridin-3-yl]-5,6,7,8-tetrahydro-2H-isoquinolin-1-one] | 7700 nM
O=C(CNC(=O)c1cncc(-c2c[nH]c(=O)c3c2CCCC3)c1)c1ccccc1 [Example 26, 5-(1-oxo-1,2,5,6,7,8-hexahydroisoquinolin-4-yl)-N-(2-oxo-2-phenylethyl)nicotinamide] | 1470 nM
O=C(NCCc1ccccc1)c1cncc(-c2c[nH]c(=O)c3c2CCCC3)c1 [Example 27, 5-(1-oxo-1,2,5,6,7,8-hexahydroisoquinolin-4-yl)-N-phenethyl-nicotinamide] | 2540 nM
O=C(NCc1ccc([N+](=O)[O-])cc1)c1cncc(-c2c[nH]c(=O)c3c2CCCC3)c1 [Example 28, N-(4-nitrobenzyl)-5-(1-oxo-1,2,5,6,7,8-hexahydroisoquinolin-4-yl)nicotinamide] | 400 nM
CN(Cc1cccc([N+](=O)[O-])c1)C(=O)c1cncc(-c2c[nH]c(=O)c3c2CCCC3)c1 [Example 32, N-methyl-N-(3-nitrobenzyl)-5-(1-oxo-1,2,5,6,7,8-hexahydroisoquinolin-4-yl)nicotinamide] | 770 nM
O=C(NCCNc1ncccn1)c1cncc(-c2c[nH]c(=O)c3c2CCCC3)c1 [Example 33, 5-(1-oxo-1,2,5,6,7,8-hexahydroisoquinolin-4-yl)-N-[2-(pyrimidin-2-ylamino)ethyl]nicotinamide] | 3690 nM
Cc1cc(CNC(=O)c2cncc(-c3c[nH]c(=O)c4c3CCCC4)c2)no1 [Example 34, N-(5-methylisoxazol-3-ylmethyl)-5-(1-oxo-1,2,5,6,7,8-hexahydroisoquinolin-4-yl)nicotinamide] | 3480 nM
Cc1nn(C)c(C)c1CNC(=O)c1cncc(-c2c[nH]c(=O)c3c2CCCC3)c1 [Example 35, 5-(1-oxo-1,2,5,6,7,8-hexahydroisoquinolin-4-yl)-N-(1,3,5-trimethyl-1H-pyrazol-4-ylmethyl)-nicotinamide] | 6880 nM
O=C(c1cncc(-c2c[nH]c(=O)c3c2CCCC3)c1)N1CCC(c2ccncc2)C1 (centres unmarked) [Example 36, 4-[5-(3-pyridin-4-ylpyrrolidine-1-carbonyl)pyridin-3-yl]-5,6,7,8-tetrahydro-2H-isoquinolin-1-one] | 420 nM
CC(=O)Nc1ccc(CNC(=O)c2cncc(-c3c[nH]c(=O)c4c3CCCC4)c2)cc1 [Example 37, N-(4-acetylaminobenzyl)-5-(1-oxo-1,2,5,6,7,8-hexahydroisoquinolin-4-yl)nicotinamide] | 4070 nM
CN(Cc1ccncc1)C(=O)c1cncc(-c2c[nH]c(=O)c3c2CCCC3)c1 [Example 38, N-methyl-5-(1-oxo-1,2,5,6,7,8-hexahydroisoquinolin-4-yl)-N-pyridin-4-ylmethylnicotinamide] | 3190 nM
Cc1cnc(CNC(=O)c2cncc(-c3c[nH]c(=O)c4c3CCCC4)c2)cn1 [Example 39, N-(5-methylpyrazin-2-ylmethyl)-5-(1-oxo-1,2,5,6,7,8-hexahydroisoquinolin-4-yl)nicotinamide] | 5890 nM
O=C(NCCc1cccnc1)c1cncc(-c2c[nH]c(=O)c3c2CCCC3)c1 [Example 40, 5-(1-oxo-1,2,5,6,7,8-hexahydroisoquinolin-4-yl)-N-(2-pyridin-3-ylethyl)nicotinamide] | 4690 nM
O=C(NCC1CC(c2ccccc2)=NO1)c1cncc(-c2c[nH]c(=O)c3c2CCCC3)c1 (centres unmarked) [Example 41, 5-(1-oxo-1,2,5,6,7,8-hexahydroisoquinolin-4-yl)-N-(3-phenyl-4,5-dihydroisoxazol-5-ylmethyl)-nicotinamide] | 3850 nM
CS(=O)(=O)c1ccc(CNC(=O)c2cncc(-c3c[nH]c(=O)c4c3CCCC4)c2)cc1 [Example 42, N-(4-methanesulfonylbenzyl)-5-(1-oxo-1,2,5,6,7,8-hexahydroisoquinolin-4-yl)nicotinamide] | 1030 nM
O=C(NCCc1ccncc1)c1cncc(-c2c[nH]c(=O)c3c2CCCC3)c1 [Example 43, 5-(1-oxo-1,2,5,6,7,8-hexahydroisoquinolin-4-yl)-N-(2-pyridin-4-ylethyl)nicotinamide] | 820 nM
NS(=O)(=O)c1ccc(CCNC(=O)c2cncc(-c3c[nH]c(=O)c4c3CCCC4)c2)cc1 [Example 44, 5-(1-oxo-1,2,5,6,7,8-hexahydroisoquinolin-4-yl)-N-[2-(4-sulf-amoylphenyl)ethyl]nicotinamide] | 8270 nM
COc1cccc(CNC(=O)c2cncc(-c3c[nH]c(=O)c4c3CCCC4)c2)c1 [Example 45, N-(3-methoxybenzyl)-5-(1-oxo-1,2,5,6,7,8-hexahydroisoquinolin-4-yl)nicotinamide] | 1700 nM
COc1ccccc1CNC(=O)c1cncc(-c2c[nH]c(=O)c3c2CCCC3)c1 [Example 46, N-(2-methoxybenzyl)-5-(1-oxo-1,2,5,6,7,8-hexahydroisoquinolin-4-yl)nicotinamide] | 3130 nM
